In brackets after ≈: the same amount, converted by molar mass. Several values for one entry are separate records, joined by “and”; a condition that tells them apart may be missing. Equal values may be shown once. Read-outs that look alike come from different tables or passages of the source.
How the values were obtained:
[1] = test system: Spodoptera frugiperda larvae; assay: whole plant or invertebrate; type: in vivo; settings: for EC50: Spodoptera frugiperda, in Zea mays, read-out: Antifeedant activity CE50 (µg/mL), S. frugiperda larvae, no-choice; for EC50 / Antifeedant activity CE50 / Antifeedant activity CE50 (µg/mL): 95% confidence limits in parentheses; for Antifeedant activity CE50 / Antifeedant activity CE50 (µg/mL): S. frugiperda larvae, no-choice
[2] = test system: Spodoptera frugiperda larvae; type: in vivo
[3] = molecular target: electric-eel AChE (Electrophorus electricus, UniProt O42275); assay: In vitro acetylcholinesterase inhibition; type: biochemical
[4] = test system: Artemia salina larvae; assay: Brine shrimp lethality; settings: A. salina nauplii; 95% confidence limits in parentheses
[5] = S. frugiperda larvae, topical application, 95% confidence limits in parentheses

Chain of electric-eel AChE (O42275 24-633): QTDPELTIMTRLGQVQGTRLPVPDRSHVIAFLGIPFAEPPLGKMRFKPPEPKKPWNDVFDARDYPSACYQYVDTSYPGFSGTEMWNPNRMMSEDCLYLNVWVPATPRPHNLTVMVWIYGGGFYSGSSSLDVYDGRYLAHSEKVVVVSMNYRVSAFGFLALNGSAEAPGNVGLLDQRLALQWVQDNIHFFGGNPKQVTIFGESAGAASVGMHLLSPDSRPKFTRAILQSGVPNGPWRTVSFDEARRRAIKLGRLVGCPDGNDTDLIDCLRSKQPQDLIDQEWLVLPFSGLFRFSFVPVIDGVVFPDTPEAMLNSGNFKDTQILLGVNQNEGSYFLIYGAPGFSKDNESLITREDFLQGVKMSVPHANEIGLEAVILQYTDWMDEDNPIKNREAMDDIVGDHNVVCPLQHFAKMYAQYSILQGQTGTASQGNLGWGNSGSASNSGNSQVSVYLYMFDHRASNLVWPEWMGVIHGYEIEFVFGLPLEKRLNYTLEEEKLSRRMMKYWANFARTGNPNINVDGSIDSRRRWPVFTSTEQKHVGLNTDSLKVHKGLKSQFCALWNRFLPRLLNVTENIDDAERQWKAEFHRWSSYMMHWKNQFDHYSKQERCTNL

Row | Compound | EC50 [1] | Antifeedant index (% AI) ([1]; concentration 50 µg/mL) | Antifeedant index (% AI) ([1]; concentration 100 µg/mL) | Antifeedant index (% AI) ([1]; concentration 250 µg/mL) | Antifeedant index (% AI) ([1]; concentration 500 µg/mL) | Antifeedant index (% AI) ([1]; concentration 1000 µg/mL) | Insecticidal activity LD50 (mg/g of insect) [2, 5] | IC50 [3] | LC50 (µg/mL), toxicity in Artemia salina larvae test [4] | Antifeedant activity CE50 [1] | Antifeedant activity CE50 (µg/mL) [1] | Antifeedant index (% AI) ([1]; concentration 25 µg/mL) | Insecticidal activity LD50 (mg/g of insect) ([2]; in vivo)
1 | CCCc1ccc(O)c(OC)c1 [Compound 13, 2-methoxy-4-propylphenol] | 319 µg/mL (≈ 1920 µM) | 11.7% | 26.7% | 38.6% | 65.0% | 72.9% | 2.02 (1.87–2.17) mg/g of insect | 132 ± 2.77 µM |  |  |  |  | 
2 | CC=Cc1ccc(OC(=O)c2ccc([N+](=O)[O-])cc2)c(OC)c1 [Compound 12, O-(4-nitrobenzoyl)isoeugenol] | 388 µg/mL (≈ 1240 µM) | 14.4% | 30.2% | 41.5% | 52.8% | 66.9% |  | 228 µM |  |  |  |  | 
3 | C=CCc1ccc(OC(=O)c2ccc([N+](=O)[O-])cc2)c(OC)c1 [Compound 7, O-(4-nitrobenzoyl)eugenol] | 724 µg/mL (≈ 2310 µM) | 23.8% | 31.6% | 39.4% | 45.1% | 55.0% |  | 314 µM |  |  |  |  | 
4 | CNC(=O)ON=C(C)SC [Methomyl, methomyl, reference compound] |  |  |  |  |  |  | 0.31 (0.29–0.33) mg/g of insect | 1.91 µM | 205.2 (184.9–225.5) µg/mL |  |  |  | 
5 | C=CCc1ccc(OC)c(OC)c1 [Compound 2, O-methyleugenol] | 504 µg/mL (≈ 2830 µM) |  |  |  |  |  |  | 157 µM |  |  |  |  | 
6 | Isoeugenol [Compound 8] |  | 37.3% | 45.6% | 56.6% | 65.9% | 78.5% |  |  |  | 158.51 µg/mL and < 210 µg/mL | 158.5 (149.3–167.8) µg/mL | 15.6% | 
7 | CC1(C)C(C=C(Cl)Cl)C1C(=O)OC(C#N)c1cccc(Oc2ccccc2)c1 (centres unmarked) [Cypermethrin, cypermethrin, reference compound] | 23.9 µg/mL (≈ 57.3 µM) | 56.0% | 61.0% | 66.5% | 72.7% | 77.9% |  |  | 404.2 (383.2–425.2) µg/mL |  | 23.83 (22.55–25.15) µg/mL | 49.2% | 
8 | C=CCc1ccc(OC(C)=O)c(OC)c1 [Compound 6, acetyleugenol] |  | 17.8% | 26.7% | 36.6% | 44.4% | 55.3% |  | 184 µM |  |  |  |  | 2.02 (1.87–2.14) mg/g of insect
9 | C=CCc1ccc(O)c(OC)c1 [Compound 1, Eugenol] | 188 µg/mL (≈ 1140 µM) | 32.3% | 44.9% | 55.3% | 62.8% | 75.0% |  | 180 µM |  | < 210 µg/mL | 187.7 (176.6–198.9) µg/mL | 13.5% | 
10 | COc1cc(C2OCOCC2C)ccc1O (centres unmarked) [Compound 14, 2-methoxy-4-(5-methyl-1,3-dioxan-4-yl)-phenol] | 1800 µg/mL (≈ 8010 µM) |  | 10.5% | 20.0% | 33.2% | 41.9% |  | 168 µM |  |  |  |  | 
11 | C/C=C/c1ccc(OC)c(OC)c1 [Compound 9, O-methylisoeugenol] | 536 µg/mL (≈ 3010 µM) | 20.5% | 33.2% | 40.1% | 47.3% | 58.5% |  | 151 µM |  |  |  |  | 

From article PMC6864136 (Saudi Journal of Biological Sciences, 2018)
